The values below come from patent publication US20240342169A1 (BETTA PHARMACEUTICALS CO., LTD, priority 2021, published 2024).

Test [1] relates to stage IIIB/IV NSCLC carrying a MET exon 14 skipping mutation. Put plainly: Clinical study in NSCLC patients carrying a MET exon 14 skipping mutation. The class given is in vivo, human. To be noted: 225 mg orally once a day. An excerpt:
Inclusion Criteria: Male or female adults, aged >18 years; Patients had newly diagnosed histologically/cytologically confirmed stage IIIB/IV. NSCLC; Patients carrying a MET exon 14 skipping mutation; EGFR/ALK wild type; at least one measurable lesion.

The next test deals with Hs746T Xenograft Model. The test can be described thus: In vivo antitumor activity, Hs746T Xenograft Model. The arrangement: species or system BALB/c nude mice. To be noted: for Tumor volume: 30 mg/kg intragastrically twice a day. From the text: BALB/c nude mice provided by Shanghai Sipur-Bika Experimental Animal Co., Ltd: SPF grade animals, 6-8 weeks old, weighing 18-23 grams; gender: female; number: 18 mice in the group. • Antibiotic(penicillin, streptomycin): (Gibco, 15240-062). • Administration in solvent control group: Aqueous solution containing 0.5% HPMC and 0.4% Tween 80.
In order to prepare a Hs746T Xenograft Model, BALB/c Nude mice were inoculated subcutaneously with Hs746T cells (harbor an MET exon 14 skipping mutation, provided by ATCC (American Type Cultural Collection)). […] Test compounds were administered intragastrically starting from group date, twice a day for 18 days. Safety evaluation was performed based on animal weight changes and death, and efficacy evaluation was performed based on relative tumor inhibition rate (TGI %).
Human gastric cancer Hs746T cells were cultured single layer in vitro using DMEM medium containing […] and 1% antibiotic solution, and incubated in a 5% CO2, 37° C. incubator. The cells were subcultured traditionally twice a week. The cells were harvested when the confluence reached 80%-90% and the number of cells reaches the required level, and then the cells were counted and seeded.
3. Tumor Measurement and Experimental Indicators Tumor diameters were measured twice a week with vernier calipers. The formula for calculating tumor volume was: V=0.5a×b2, where a and b are the long and short diameters of the tumor, respectively.
After the experiment, the tumor weight will be measured and TGI (%) will be calculated to reflect the rate of tumor growth inhibition. Calculation of TGI(%):TGI (%)=[1−(Average tumor volume at the end of administration in a certain treatment group−Average tumor volume at the beginning of administration in this treatment group)/(Average tumor volume at the end of treatment in the solvent control group−Average tumor volume at the beginning of treatment in the solvent control group)]×100%.

Test [2] deals with Hs746T cells (harbor an MET exon 14 skipping mutation). Put plainly: Cell proliferation inhibitory activity (CellTiter-Glo). The class given is cell-based. To be noted: Homo sapiens, 168 hours incubation, CTG. As to the method: • 1). Cells in logarithmic growth phase were harvested and counted using cell counter. Trypan blue exclusion test was used to measure the cell viability to make sure the cell viability is at least 90%.
2). Adjust cell concentration, 180 μL cell suspension was added to each well of the 96-well plate at a density of 1200 cells/well.
3). The 96-well plate was incubated overnight under 5% CO2 and 95% humidity conditions at 37° C.
• 1). 20 μL PBS was added to each well of the seeded 96-well plate. • 2). CTG agent was melted and the cell plate was equilibrated to room temperature for 30 minutes. • 3). 100 μL CTG solution was added to each well. • 4). The plate was placed on an orbital shaker for 5 minutes to lyse the cells. • 5). The plate was placed at room temperature for 20 minutes to stabilize the luminescent signal. • 6). TO luminescence value (Lum) was recorded.
• 1). CTG agent was melted and the cell plate was equilibrated to room temperature for 30 minutes. • 2). 100 μL CTG solution was added to each well. • 3). The plate was placed on an orbital shaker for 5 minutes to lyse the cells. • 4). […] Endpoint luminescence value (Lum) was recorded.
The data were analyzed using GraphPad Prism 7.0, in order to calculate IC50, a dose-response curve was fitted using nonlinear regression model with a sigmoidal dose response. […]
Background: Cellular ATP, detected with luciferase, serves as a proxy for viable cell number.

Another test concerns the target T1, MET(ex14Del) kinase (Homo sapiens, UniProt P08581, DEL963-1009).
T1 construct: purchased Sinalchem (so in the source)
Put plainly: Kinase inhibitory activity assay (ADP-Glo Kinase Assay Kit). To be noted: 60 minutes at 25° C., read-out: IC50 (half inhibitory concentration) for MET (ex14Del) kinase. The format is biochemical. The procedure:
• MET(ex14Del) kinase(Sinalchem, M52-12PG); • ADP-Glo Kinase Assay Kit(Promega, V9102);
And then serially diluted 9 times with DMSO at a volume ratio of 1:3 to make 10 concentrations of 100× compound working solution, the diluted compound solution was added to a 384-well plate at a volume of 0.1 μL/well. 5 μL enzyme working solution was added to the 384-well plate, centrifuged at 1000 rpm for 1 minute, incubated 15 minutes at 25° C. 5 μL substrate working solution was added to each well to make 10 concentrations of 1× compound working solution by 3-fold serial dilutions, in which the maximum concentration of the compound solution is 3000 nM, the reaction was triggered and incubated 60 minutes at 25° C. 10 μL ADP-Glo agent(Promega, V9102) was added to each well, centrifuged at 1000 rpm for 1 minute, incubated 15 minutes at 25° C., then 20 μL kinase detection reagent was added to each well, centrifuged at 1000 rpm for 1 minute. RLU (relative luminescence units) was read by Envision Multimode Plate Reader, the value of RLU was used to characterize the degree of reaction between enzyme and substrate, IC50 values were calculated by XLfit 5.3.1 nonlinear regression equation.
Background: ADP-Glo turns the ADP formed in a reaction into a luminescent signal.

T1 sequence (P08581 with tags, fused parts or gaps DEL963-1009 limits assumed): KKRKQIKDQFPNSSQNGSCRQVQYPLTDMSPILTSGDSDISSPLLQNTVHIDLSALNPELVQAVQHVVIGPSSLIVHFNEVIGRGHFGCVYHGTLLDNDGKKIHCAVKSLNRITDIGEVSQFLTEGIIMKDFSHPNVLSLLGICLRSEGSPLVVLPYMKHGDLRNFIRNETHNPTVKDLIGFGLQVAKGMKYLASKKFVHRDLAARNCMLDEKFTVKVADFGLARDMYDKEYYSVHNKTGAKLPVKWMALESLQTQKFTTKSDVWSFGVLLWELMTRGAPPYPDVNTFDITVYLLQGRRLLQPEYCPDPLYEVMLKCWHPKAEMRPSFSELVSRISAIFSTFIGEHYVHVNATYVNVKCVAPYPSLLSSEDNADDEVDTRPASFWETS

In the case of `C[C@@H]1CN(C(=O)c2ccc(NC(=O)c3cc(O[C@H](C)c4c(Cl)ccc(F)c4Cl)c(N)nn3)cc2)C[C@H](C)N1` [Ensartinib, ensartinib], the “ORR (objective response rate)” value in test [1] (12/17 patients) came to 71%. Further, the “DCR (disease control rate)” value in test [1] (16/17 patients) turned out to be 94%. Also, the “average tumor shrinkage rate” value in test [1] (17 patients) is −37.7%. Also, the “CR (complete response)” value in test [1] (among 17 patients) worked out at 1 case. Also, in test [1] (among 17 patients), the “PR (partial response)” value stood at 11 cases. For the same compound, the “Tumor growth in tumor-bearing mice (in words)” value in the test on Hs746T Xenograft Model (30 mg/kg intragastrically twice a day for 18 days) is recorded as “obvious tumor regression was observed”. The Tumor volume in the test with Hs746T Xenograft Model (Day 0 (start of dosing)) is 128 ± 10 mm^3; with Hs746T Xenograft Model (Day 3), 109 ± 8 mm^3; with Hs746T Xenograft Model (Day 7) it was 101 ± 8 mm^3; with Hs746T Xenograft Model (Day 10) it was 74 ± 9 mm^3; in the test with Hs746T Xenograft Model (Day 14), 49 ± 8 mm^3; in the test with Hs746T Xenograft Model (Day 17), 29 ± 15 mm^3. The IC50 worked out at 31 nM in test [2] and 7.6 nM on MET(ex14Del) kinase.
